“And” between values parts separate entries of the source, which are not always exact repeats. Identical values can stand only once.
Columns and labels:
3T3 cells = experiment: Cytotoxicity in 3T3 cells (XTT kit); format: cell-based; settings: DMSO 10% control; 48 hr; single well of triplicate
Method: 3T3 cells (ATCC; CRL-1658) were seeded in a 96 well plate (4×10^3 cells per well), and 24 hr following cell adherence, cells were treated (in triplicate) with different concentrations (1-50 mg/ml) of the test items, or with the control items cottonseed oil alone, or 10% DMSO, or were left untreated. All treatments were introduced in a final volume of […] within a total volume of 100 μl/well. Cytotoxicity was determined 48 hr after additional of test items, using the XTT kit (Biological industries, Israel). Raw data was analyzed using Prism4 statistical software following blank reduction. The cottonseed oil vehicle treated control was used to calculate 100% viability and OD % was calculated.

ARPE-19 cells = experiment: Neuronal-like differentiation of ARPE-19 retinal pigment epithelial cell cultures; format: cell-based, human; settings: 2-10% w/w in cottonseed oil, compared to vehicle control
Method: ARPE-19 cells (obtained from the American Type Culture Collection, ATCC) were plated in flat bottom 96 well tissue culture microplates (Costar) at a concentration of 2-5×10^3 cells per well (1-2.5×10^4 cells/mL) in a growth medium consisting of DMEM:Ham F-12, 1:1, supplemented with 10% Fetal Bovine Serum, […] glutamine, 100 units/mL penicillin and 100 μg/mL streptomycin. The cells were allowed to adhere to the plate surfaces overnight prior to treatment with either RPh-CY or RPh-SA.
RPh-CY and RPh-SA were prepared essentially as described in Examples 2 and 4 respectively, to provide 10% solutions in a carrier composed of grape seed oil, olive oil, cottonseed oil, and Mygliol® (Mygliol® 810 or Mygliol® 812). […]
The cultures were incubated in a 37° C., 5% CO2 incubator for 48 hr. The medium was then removed, the cultures washed twice with phosphate buffered saline (PBS), fixed with absolute methanol for 10 min and stained with Hemacolor® reagents (Boehringer Mannheim), which stain cells in a manner similar to Giemsa, and may be used in a quantitative cell viability assay (see Keisari, Y. A colorimetric microtiter assay for the quantitation of cytokine activity on adherent cells in tissue culture. J. Immunol. Methods 146, 155-161, 1992). […]

Structure (SMILES) | OD at 450 (XTT) (3T3 cells) | change in ARPE-19 RPE cells (neurodifferentiation assay) (ARPE-19 cells)
C[S+](C)[O-] [DMSO] | 0.238 and 0.233 and 0.234 | 
CC(C)c1c(O)ccc2c1CC[C@H]1C(C)(C)CCC[C@]21C [totarol] |  | induced no change
